Earlier results in US20210299023A1, “COMPOSITIONS AND METHODS FOR HAIR GROWTH” (Allergan, Inc., priority 2010, published 2021).

Columns and labels:
eyelash = details: healthy patients
bald scalp of macaques = details: 0.05% latanoprost

SMILES | eyelash growth (eyelash) | hair growth (bald scalp of macaques) | density and thickness of hair (bald scalp of macaques; after 3 months of treatment)
CCNC(=O)CCC/C=C\C[C@@H]1[C@@H](/C=C/[C@@H](O)CCc2ccccc2)[C@H](O)C[C@@H]1O [Bimatoprost, bimatoprost] | increased length, thickness, and darkness | – | –
CC(C)OC(=O)CCC/C=C\C[C@@H]1[C@@H](CC[C@@H](O)CCc2ccccc2)[C@H](O)C[C@@H]1O [latanoprost] | – | significant hair growth | increased significantly
